# Counter-ions that a name gives are not always drawn.
# Biological target: human recombinant 5-HT2A receptor (Homo sapiens (Human), UniProt P28223)
# Test: Determination of Ki value at 5-HT2A receptor ([3H]-Ketanserine radioligand binding)
# Description: Determination of Ki Value at 5-HT2A Receptor
# Compound was tested according to the following procedures.
# Receptor source: Recombinant mammalian cells
# Radioligand: [^3H]-Ketanserine (47.3 Ci/mmol)
# Final ligand concentration—[1.75 nM]
# Non-Specific Ligand: 0.1 mM 1-Naphthylpiperazine (1-NP)
# Reference compound: 1-Naphthylpiperazine (1-NP)
# Positive control: 1-Naphthylpiperazine (1-NP)
# Incubation conditions: Reactions were carried out in 67 mM Tris-HCl (pH 7.4) for 1 hour at 37° C. The reaction was terminated by rapid vacuum filtration onto the glass fiber filters. Radioactivity trapped onto the filters was determined and compared to the control values in order to ascertain any interactions of the test compound(s) with the cloned serotonin 5-HT2A binding site. Reference: Methods in Molecular Biology, 2002, 190, 31-49 Results:
# . The Ki values tabulated below are average of three independent experiments.
smiles,measurement,value
"COc1ccc2c(c1)c(CN1CCN(C)CC1)cn2S(=O)(=O)c1ccc(F)cc1 [Compound 2, 1-[(4-Fluorophenyl)sulfonyl]-5-methoxy-3-[(4-methyl-1-piperazinyl)methyl]-1H-indole dihydrochloride]",Ki,> 10 µM

# From patent publication US11253514B2, “Triple combination of pure 5-HT6 receptor antagonists, acetylcholinesterase inhibitors and NMDA receptor antagonist” (priority 2016, dated 2022)
